Legend:
[1] = Cytotoxicity against human MDA-MB-231 cells assessed as cell growth inhibition after 48 hrs by MTT assay method; assay type: functional, cell-based; conditions: MDA-MB-231, 48 h
[2] = Inhibition of recombinant FT (unknown origin) using FPP as substrate preincubated for 5 mins followed by protein addition measured over 20 mins by fluorescence assay; set-up: species or system Homo sapiens

IC50 [2] [µM]	SMILES	IC50 [1] [µM]
–	CSCCc1c(-c2cccnc2)nn(-c2ccc(Cl)c(Cl)c2)c1OCCCC(=O)N[C@@H](Cc1ccccc1)C(N)=O	23
1.1	COC(=O)[C@H](CCSC)NC(=O)c1ccc(NC[C@@H](N)CS)cc1-c1ccccc1	–
> 100	CSCCc1c(-c2cccnc2)nn(-c2ccc(Cl)c(Cl)c2)c1OCCCNC(=O)[C@H](Cc1ccccc1)NS(C)(=O)=O	> 50
> 100	CSCCc1c(-c2cccnc2)nn(-c2ccc(Cl)c(Cl)c2)c1OCCCNC(=O)[C@H](Cc1ccc(F)cc1)NS(C)(=O)=O	> 50
> 100	COc1ccc(C[C@H](NS(C)(=O)=O)C(=O)NCCCOc2c(CCSC)c(-c3cccnc3)nn2-c2ccc(Cl)c(Cl)c2)cc1	> 50
> 100	CSCCc1c(-c2cccnc2)nn(-c2ccc(Cl)c(Cl)c2)c1OCCCNC(=O)[C@H](Cc1cccnc1)NC(C)=O	52.3
> 100	CSCCc1c(-c2cccnc2)nn(-c2ccc(Cl)c(Cl)c2)c1OCCCNC(=O)[C@H](Cc1ccncc1)NC(C)=O	34.9
> 100	CSCCc1c(-c2cccnc2)nn(-c2ccc(Cl)c(Cl)c2)c1OCCCNC(=O)[C@H](Cc1cccnc1)NS(C)(=O)=O	> 50
> 100	COc1ccc(C[C@H](NC(=O)OC(C)(C)C)C(=O)NCCCOc2c(CCSC)c(-c3cccnc3)nn2-c2ccc(Cl)c(Cl)c2)cc1	> 50
> 100	CSCCc1c(-c2cccnc2)nn(-c2ccc(Cl)c(Cl)c2)c1OCCCNC(=O)[C@H](Cc1ccccc1)NC(C)=O	15.4
> 100	CSCCc1c(-c2cccnc2)nn(-c2ccc(Cl)c(Cl)c2)c1OCCCNC(=O)[C@H](Cc1ccncc1)NS(C)(=O)=O	26.5
> 100	CSCCc1c(-c2cccnc2)nn(-c2ccc(Cl)c(Cl)c2)c1OCCCNC(=O)[C@H](Cc1ccc(F)cc1)NC(C)=O	13.2
> 100	COc1ccc(C[C@H](NC(=O)CCCOc2c(CCSC)c(-c3cccnc3)nn2-c2ccc(Cl)c(Cl)c2)C(N)=O)cc1	33.2
> 100	CSCCc1c(-c2cccnc2)nn(-c2ccc(Cl)c(Cl)c2)c1OCCCC(=O)N[C@@H](Cc1ccc(F)cc1)C(N)=O	7.6
> 100	CSCCc1c(-c2cccnc2)nn(-c2ccc(Cl)c(Cl)c2)c1OCCCC(=O)N[C@@H](Cc1cccnc1)C(N)=O	29.4
> 100	COc1ccc(C[C@H](NC(C)=O)C(=O)NCCCOc2c(CCSC)c(-c3cccnc3)nn2-c2ccc(Cl)c(Cl)c2)cc1	14.8
> 100	CSCCc1c(-c2cccnc2)nn(-c2ccc(Cl)c(Cl)c2)c1OCCCC(=O)N[C@@H](Cc1ccncc1)C(N)=O	> 50

— ChEMBL document CHEMBL3875164, “Pyrazole-based potent inhibitors of GGT1: Synthesis, biological evaluation, and molecular docking studies” (Eur J Med Chem, 2016)
